Results published in patent US7011834B1, “Immunomodulating dimers” (The Board of Trustees of Leland Stanford Junior University, priority 1987, dated 2006).

Key:
[1] = test system: CD8+CTL line specific for HLA-A2; experiment: Cytotoxicity assay: inhibition of lysis by established CTL, 51Cr-labeled JY targets; assay type: cell-based, human; settings: cell ratio 10:1, CTL line AJY
PBL from normal donors = experiment: PBL proliferation with Conagglutinin A, 3H-thymidine incorporation; assay type: cell-based, human; settings: approximate, purity not established
Experimental: To measure the effect of D-substitutions on proliferation, PBL from normal donors were cultured at 5×10^5 cells/round bottom microtiter well in RPMI-1640 supplemented with 10% fetal bovine serum and L-glutamine. Cultures were supplemented with Conagglutinin A. Cells were incubated at 37° C. for three days at which point ^3H-thymidine (1 μCi/well) was added. After 24 hours, wells were harvested and ^3H-thymidine incorporation determined by scintillation counter.

rat splenocytes = experiment: Differentiation of rat splenocytes into allospecific CTL in vitro; assay type: cell-based; settings: initial studies
Experimental: Therefore, we tested whether splenocytes obtained from rats treated with the peptides in vivo could differentiate into CTL ex vivo. In preliminary studies, the half-life of the B7.75-84 peptide was determined to be 2–3 hours in rats.

[2] = test system: popliteal lymph node cells; experiment: Lymph node proliferation assay (footpad injection of splenocytes); assay type: in vivo, rat; settings: treated within 24 hours of footpad injection; compared with approximately 3:1
Experimental: ACI or PVG rats (200 g) were injected intravenously with peptides dissolved in saline on day 0. On the indicated days thereafter, the left rear footpads of the rats were injected with 5×10^6 splenocytes from a syngeneic donor and the right rear footpads with 5×10^6 splenocytes from an allogeneic Lew donor (Moeller et al. Transplantation (1993) 55:650). See also Twist and Barnes Transplantation (1973) 15:182; Fanslow et al. Science (1990) 248:739). Seven days after the footpad injection, the animals were sacrificed and the popliteal lymph nodes removed. A single cell suspension was prepared, and the cell number determined using a hemocytometer.
PVG or ACI rats (3 per group) were given a single intravenous injection of 2 mg of each of the four peptides or saline. On the day of treatment, or on days 1, 7, or 10 after treatment, the right footpads were injected with 5×10^6 syngeneic splenocytes while the left footpads were injected with 5×10^6 allogeneic Lew splenocytes. Seven days after the footpad injections, the draining lymph nodes were removed, a single cell suspension was prepared, and the cell number determined.

[3] = test system: CD8+CTL line specific for HLA-A2; experiment: Cytotoxicity assay: inhibition of lysis by established CTL, 51Cr-labeled JY targets; assay type: cell-based, human; settings: JY targets; for % Specific Lysis: cell ratio 1:1, CTL line AJY
Experimental: Cytotoxicity Assay. CTL assays were performed as described using ^51Cr-labeled EBV transformed B cells expressing the appropriate HLA allele as targets [[…] et al., J. Immunol. (1982) 129:2001]. In the present protocol, a CD8+CTL line specific for HLA-A2 was tested in the presence of various peptides for lysis of ^51Cr-labeled JY targets. Peptides were added to a final concentration of 100 μg/ml at the initiation of the 4 h assay. Each determination was the mean of triplicate wells. […] In these determinations, inhibition of cytolysis, as described above, employed the CTL cell line AJY, a long term CD8+CTL line specific for HLA-A2 and the target cell was the B-lymphoblastoid cell line JY (HLA-A2, B7). The cytotoxicity assay was performed as described by Clayberger et al., J. Exp. Med. (1984) 162:1709-1714; and Reiss et al., Proc Natl Acad Sci USA (1980) 77:5432-5436. The peptides were preincubated for 30 min with 1-3×10^3 CTLs before addition of 10^3 51Cr-labeled B-lymphoblastoid target cells. The results are reported for varying concentrations of the peptide with varying ratios of the two cell lines.

murine heart allograft = experiment: Murine heart allograft survival, C57B1/6 donor to CBA recipient; assay type: in vivo, mice
Experimental: Following the procedure set forth in Example 2C, daily administration of B2702.75-84 (80 mg/kg/day:ip) to CBA mice with (H-2^k) recipients of a C57B1/6 with (H-2^b) murine heart allograft prolonged graft survival to 11.4±2.6 days compared to 7.5±1.2 days in untreated control animals (n=8; p<0.01, Mann-Whitney U Test). The therapy using the same compound starting at day 5 after transplantation, prolonged graft survival to 9.2±0.4 days (n=5; p<0.02) indicating the subject composition could be useful in an ongoing rejection episode. In combination with a subtherapeutic dose of cyclosporin A (2.7 mg/kg/day; ip; day 0–4) the subject peptide prolonged graft survival to at least 45 days (3 grafts out of 4 still beating) compared to a median graft survival of 14 days in animals that received cyclosporin A monotherapy.
When the B2702.75-84 was prepared as the D-isomer (all amino acids in the D-form) and administered to murine graft recipients at 10 mg/kg/day (ip; day 0–10), graft survival was prolonged to more than 22 days in 4 out of 5 animals (4 grafts out of 5 still beating).

RENLRIALRY [B2702.75–84]
% Specific Lysis ([1]; peptide 25 μg/ml): 60.9%
% Specific Lysis ([1]; peptide 100 μg/ml): 43.7%
% Specific Lysis ([1]; peptide 200 μg/ml): 33.1%
CPM ± SD (3H-thymidine incorporation) (PBL from normal donors; peptide 50 μg/ml, Con A 1 mg/ml): 5,806 ± 721 CPM
CPM ± SD (3H-thymidine incorporation) (PBL from normal donors; peptide 50 μg/ml, Con A 3 mg/ml): 32,618 ± 1582 CPM
CPM ± SD (3H-thymidine incorporation) (PBL from normal donors; peptide 200 μg/ml, Con A 1 mg/ml): 2,322 ± 147 CPM
CPM ± SD (3H-thymidine incorporation) (PBL from normal donors; peptide 200 μg/ml, Con A 3 mg/ml): 20,905 ± 2047 CPM
blocking of differentiation of rat splenocytes into allospecific CTL in vitro (rat splenocytes): blocked the differentiation
ratio of cells recovered from side injected with allogeneic versus syngeneic cells [2]: A similar ratio
inhibition of lysis by established CTL ([3]; HLA-A2 specific CD8+CTL, peptides 100 μg/ml, 4 h assay): inhibited lysis
% Specific Lysis ([3]; peptide 25 μg/ml): 23.9%
% Specific Lysis ([3]; peptide 100 μg/ml): 18.6%
% Specific Lysis ([3]; peptide 200 μg/ml): 16.4%
graft survival (murine heart allograft; 80 mg/kg/day ip daily, untreated 7.5±1.2 days, n=8): 11.4 ± 2.6 days
graft survival (murine heart allograft; peptide plus subtherapeutic cyclosporin A 2.7 mg/kg/day ip day 0–4): at least 45 days
graft survival (murine heart allograft; therapy starting at day 5 after transplantation, n=5): 9.2 ± 0.4 days
